Measured values: patent publication US20110200993A1, “NEW TREATMENT OF AUTOIMMUNE CONDITIONS” (priority 2007, published 2011)

Test system: system A transporters (including Slc38A1)
Test: Effect of blocking system A transport on arthritis in mice
Format: in vivo
Text: FIG. 3 is a graph showing the effect of blocking the system A transporters (including Slc38A1) on (A) mean arthritis score and (B) anti collagen antibody production. P=<0.05, n=20.
This confirms that disease susceptibility can be changed both by increased and decreased transporter activity.

CNC(C)(C)C(=O)O [MeAIB]
arthritis susceptibility: increases arthritis susceptibility
